{"source": "patent US6765010B2", "about": "“Compositions and methods for enhancing analgesic potency of tramadol and attenuating its adverse side effects” (Pain Therapeutics, Inc., priority 1999, dated 2004)", "key": {"[1]": {"test_system": "mice", "experiment": "Acute physical dependence assay: naloxone-precipitated withdrawal jumping", "assay_type": "in vivo, mouse", "conditions": "for effect on naloxone-precipitated withdrawal jumping: co-treatment 4 hours with 100 mg/kg morphine s.c. plus low dose antagonist"}, "[2]": {"test_system": "mice", "conditions": "morphine 20-50 mg/kg s.c. twice daily 4 days alone or + naltrexone 10 μg/kg s.c.; n=30"}, "[3]": {"test_system": "dorsal root ganglion (DRG) neurons", "assay_type": "cell-based, mouse"}, "[4]": {"test_system": "mice", "experiment": "Warm-water (55° C.) tail-flick assay, antinociception", "assay_type": "in vivo, mouse"}, "[5]": {"test_system": "mice", "conditions": "at 30 minutes; n=10"}, "[6]": {"test_system": "DRG neurons", "assay_type": "cell-based, mouse"}, "[7]": {"test_system": "excitatory opioid receptors on DRG neurons", "assay_type": "cell-based, mouse"}, "[8]": {"test_system": "human volunteers", "conditions": "yohimbine 0.1 mg/kg IV; 100 mg tramadol orally; cited from earlier work"}}, "note": "“Also recorded” adds a separate entry of the source. Read-outs that look alike come from different tables or passages of the source.", "data": [{"smiles": "CN1CC[C@]23c4c5ccc(O)c4O[C@H]2[C@@H](O)C=C[C@H]3[C@H]1C5", "note": "[morphine]", "values": [{"measurement": "mice showing naloxone-precipitated jumping", "setting": "[1]; 100 mg/kg morphine s.c. alone or + naltrexone 10 μg/kg, naloxone 10 mg/kg i.p. 3-4 h later, n=30", "result": "About 67%"}, {"measurement": "mice showing naloxone-precipitated jumping", "setting": "[2]", "result": "About 60%"}, {"measurement": "APD during application", "setting": "[3]", "result": "prolonged"}, {"measurement": "alteration of the APD of DRG neurons", "setting": "[3]", "result": "prolong the APD"}, {"measurement": "peak tail-flick latencies", "setting": "[4]; 100 mg/kg morphine alone or + 10 μg/kg naltrexone, cutoff value", "result": 10, "unit": "s"}, {"measurement": "antinociception after acute 1 mg/kg morphine, 1 day after drug withdrawal", "setting": "[5]", "result": "3%±2%"}]}, {"smiles": "C=C1CC[C@@]2(O)[C@H]3Cc4ccc(O)c5c4[C@@]2(CCN3CC2CC2)[C@H]1O5", "note": "[nalmefene]", "values": [{"measurement": "attenuation of morphine dependence liability compared with naltrexone", "setting": "[1]; 1 μg/kg nalmefene, n=10", "result": "may even be more effective than naltrexone"}, {"measurement": "effect on naloxone-precipitated withdrawal jumping", "setting": "[1]", "result": "attenuates naloxone-precipitated withdrawal-jumping"}, {"measurement": "enhancement of morphine antinociceptive potency compared with naltrexone", "setting": "[4]; 1 ng/kg nalmefene", "result": "as effective as 10 ng/kg naltrexone"}, {"measurement": "effect on morphine's antinociceptive potency", "setting": "[4]; 3 mg/kg morphine + 1-100 ng/kg nalmefene i.p., 10 mice", "result": "enhances morphine's antinociceptive potency"}]}, {"smiles": "O=C1CC[C@@]2(O)[C@H]3Cc4ccc(O)c5c4[C@@]2(CCN3CC2CC2)[C@H]1O5", "note": "[naltrexone]", "values": [{"measurement": "effect on naloxone-precipitated withdrawal jumping", "setting": "[1]", "result": "attenuates naloxone-precipitated withdrawal-jumping"}, {"measurement": "excitatory APD prolongation (supersensitivity) after chronic co-treatment", "setting": "[6]", "result": "did not evoke the usual excitatory APD prolongation"}, {"measurement": "tolerance to inhibitory effects of opioids after chronic co-treatment", "setting": "[6]", "result": "no evidence of tolerance"}, {"measurement": "analgesic effects of antagonist alone", "setting": "[4]; 10 ng/kg i.p.", "result": "did not elicit analgesic effects"}, {"measurement": "analgesic effects of antagonist alone", "setting": "[4]; 0.1 μg/kg", "result": "did not elicit analgesic effects"}, {"measurement": "blockade of excitatory APD prolongation by bimodally-acting opioid agonists", "setting": "[7]", "result": "remarkably effective in blocking excitatory APD-prolonging effects"}, {"measurement": "effect on morphine's APD effects", "setting": "[7]", "result": "blocks both inhibitory as well as excitatory effects of morphine"}, {"measurement": "selective antagonism of excitatory APD-prolonging effects at excitatory opioid receptors", "setting": "[7]", "result": "act selectively as antagonists; also recorded: selectively blocked"}]}, {"smiles": "COC(=O)[C@@H]1[C@H]2C[C@H]3c4[nH]c5ccccc5c4CCN3C[C@@H]2CC[C@@H]1O", "note": "[yohimbine]", "values": [{"measurement": "reduction of tramadol-induced analgesia", "setting": "[8]", "result": "≥ 89", "unit": "%"}]}]}
